Test results taken from patent US20260027116A1, “Methods of Treating Chronic Graft-Versus-Host Disease Following Allogeneic Hematopoietic Stem Cell Transplantation” (Kadmon Corporation, LLC, priority 2022, published 2026).

Test system: lung function
Experiment: Example 1: percent predicted FVC change from baseline
Assay type: in vivo, human
Conditions: mean (SD)
Method: Change From Baseline in Percent Predicted Forced Vital Capacity (FVC) at Each Specified Time Points. FVC was the total amount of air (in liters) exhaled from the lungs during the lung function test measured by spirometer which assessed the change in lung function related to the disease status. Baseline value was defined as valid and last non-missing value obtained within 28 days prior to participant receiving first study medication. EOT visit was performed within 3 days after the participant's last dose of study drug. […] Analysis was performed on mITT population. Here, ‘number analyzed’=participants with available data for each specified category. Here, ‘0’ in the number analyzed field signifies that none of the participants were available for the analysis at the specified time points.

CC(C)NC(=O)COc1cccc(-c2nc(Nc3ccc4[nH]ncc4c3)c3ccccc3n2)c1 [Belumosudil, 2-{3-[4-(1H-indazol-5-ylamino)-2-quinazolinyl]phenoxy}-N-(propan-2-yl) acetamide]
Change From Baseline in Percent Predicted Forced Vital Capacity (FVC) (Cohort 1: 200 mg QD, Cycle 3, Day 1): 0.5 (3.8) percent predicted FVC | Change From Baseline in Percent Predicted Forced Vital Capacity (FVC) (Cohort 1: 200 mg QD, Cycle 5, Day 1): −0.5 (7.1) percent predicted FVC | Change From Baseline in Percent Predicted Forced Vital Capacity (FVC) (Cohort 1: 200 mg QD, Cycle 7, Day 1): −2.9 (5.2) percent predicted FVC | Change From Baseline in Percent Predicted Forced Vital Capacity (FVC) (Cohort 1: 200 mg QD, Cycle 9, Day 1): 0.4 (5.1) percent predicted FVC | Change From Baseline in Percent Predicted Forced Vital Capacity (FVC) (Cohort 1: 200 mg QD, Cycle 11, Day 1): −1.1 (7.3) percent predicted FVC | Change From Baseline in Percent Predicted Forced Vital Capacity (FVC) (Cohort 1: 200 mg QD, Cycle 12, Day 1): 2.0 (—) percent predicted FVC | Change From Baseline in Percent Predicted Forced Vital Capacity (FVC) (Cohort 1: 200 mg QD, Cycle 13, Day 1): −2.4 (7.9) percent predicted FVC | Change From Baseline in Percent Predicted Forced Vital Capacity (FVC) (Cohort 1: 200 mg QD, Cycle 14, Day 1): 11.0 (—) percent predicted FVC | Change From Baseline in Percent Predicted Forced Vital Capacity (FVC) (Cohort 1: 200 mg QD, Cycle 15, Day 1): −3.7 (10.4) percent predicted FVC | Change From Baseline in Percent Predicted Forced Vital Capacity (FVC) (Cohort 1: 200 mg QD, Cycle 16, Day 1): 16.0 (—) percent predicted FVC | Change From Baseline in Percent Predicted Forced Vital Capacity (FVC) (Cohort 1: 200 mg QD, Cycle 17, Day 1): −3.2 (6.3) percent predicted FVC | Change From Baseline in Percent Predicted Forced Vital Capacity (FVC) (Cohort 1: 200 mg QD, Cycle 19, Day 1): −2.3 (6.8) percent predicted FVC | Change From Baseline in Percent Predicted Forced Vital Capacity (FVC) (Cohort 1: 200 mg QD, Cycle 21, Day 1): −3.2 (8.1) percent predicted FVC | Change From Baseline in Percent Predicted Forced Vital Capacity (FVC) (Cohort 1: 200 mg QD, Cycle 23, Day 1): 0.0 (12.3) percent predicted FVC | Change From Baseline in Percent Predicted Forced Vital Capacity (FVC) (Cohort 1: 200 mg QD, Cycle 24, Day 1): 4.0 (—) percent predicted FVC | Change From Baseline in Percent Predicted Forced Vital Capacity (FVC) (Cohort 1: 200 mg QD, Cycle 25, Day 1): −7.0 (11.3) percent predicted FVC | Change From Baseline in Percent Predicted Forced Vital Capacity (FVC) (Cohort 1: 200 mg QD, Cycle 26, Day 1): 4.0 (—) percent predicted FVC | Change From Baseline in Percent Predicted Forced Vital Capacity (FVC) (Cohort 1: 200 mg QD, Cycle 27, Day 1): −2.0 (4.2) percent predicted FVC | Change From Baseline in Percent Predicted Forced Vital Capacity (FVC) (Cohort 1: 200 mg QD, Cycle 29, Day 1): 2.5 (4.9) percent predicted FVC | Change From Baseline in Percent Predicted Forced Vital Capacity (FVC) (Cohort 1: 200 mg QD, Cycle 30, Day 1): 4.0 (—) percent predicted FVC | Change From Baseline in Percent Predicted Forced Vital Capacity (FVC) (Cohort 1: 200 mg QD, Cycle 31, Day 1): 1.5 (3.5) percent predicted FVC | Change From Baseline in Percent Predicted Forced Vital Capacity (FVC) (Cohort 1: 200 mg QD, Cycle 32, Day 1): 2.0 (—) percent predicted FVC | Change From Baseline in Percent Predicted Forced Vital Capacity (FVC) (Cohort 1: 200 mg QD, Cycle 33, Day 1): 11.0 (0.0) percent predicted FVC | Change From Baseline in Percent Predicted Forced Vital Capacity (FVC) (Cohort 1: 200 mg QD, Cycle 34, Day 1): 6.0 (—) percent predicted FVC | Change From Baseline in Percent Predicted Forced Vital Capacity (FVC) (Cohort 1: 200 mg QD, Cycle 35, Day 1): 11.0 (5.7) percent predicted FVC | Change From Baseline in Percent Predicted Forced Vital Capacity (FVC) (Cohort 1: 200 mg QD, Cycle 36, Day 1): 5.0 (—) percent predicted FVC | Change From Baseline in Percent Predicted Forced Vital Capacity (FVC) (Cohort 1: 200 mg QD, Cycle 48, Day 1): 5.0 (—) percent predicted FVC | Change From Baseline in Percent Predicted Forced Vital Capacity (FVC) (Cohort 1: 200 mg QD, Cycle 49, Day 1): 6.0 (—) percent predicted FVC | Change From Baseline in Percent Predicted Forced Vital Capacity (FVC) (Cohort 1: 200 mg QD, Cycle 51, Day 1): 9.0 (—) percent predicted FVC | Change From Baseline in Percent Predicted Forced Vital Capacity (FVC) (Cohort 1: 200 mg QD, Cycle 52, Day 1): 3.0 (—) percent predicted FVC | Change From Baseline in Percent Predicted Forced Vital Capacity (FVC) (Cohort 1: 200 mg QD, Cycle 53, Day 1): 8.0 (—) percent predicted FVC | Change From Baseline in Percent Predicted Forced Vital Capacity (FVC) (Cohort 1: 200 mg QD, Cycle 54, Day 1): 5.0 (—) percent predicted FVC | Change From Baseline in Percent Predicted Forced Vital Capacity (FVC) (Cohort 1: 200 mg QD, Cycle 55, Day 1): 13.0 (—) percent predicted FVC | Change From Baseline in Percent Predicted Forced Vital Capacity (FVC) (Cohort 1: 200 mg QD, Cycle 56, Day 1): 7.0 (—) percent predicted FVC | Change From Baseline in Percent Predicted Forced Vital Capacity (FVC) (Cohort 1: 200 mg QD, Cycle 57, Day 1): 14.0 (—) percent predicted FVC | Change From Baseline in Percent Predicted Forced Vital Capacity (FVC) (Cohort 1: 200 mg QD, Cycle 58, Day 1): 7.0 (—) percent predicted FVC | Change From Baseline in Percent Predicted Forced Vital Capacity (FVC) (Cohort 1: 200 mg QD, Cycle 60, Day 1): 8.0 (—) percent predicted FVC | Change From Baseline in Percent Predicted Forced Vital Capacity (FVC) (Cohort 1: 200 mg QD, Cycle 61, Day 1): 12.0 (—) percent predicted FVC | Change From Baseline in Percent Predicted Forced Vital Capacity (FVC) (Cohort 1: 200 mg QD, Cycle 62, Day 1): 5.0 (—) percent predicted FVC | Change From Baseline in Percent Predicted Forced Vital Capacity (FVC) (Cohort 1: 200 mg QD, Cycle 63, Day 1): 12.0 (—) percent predicted FVC | Change From Baseline in Percent Predicted Forced Vital Capacity (FVC) (Cohort 1: 200 mg QD, Cycle 67, Day 1): 14.0 (—) percent predicted FVC | Change From Baseline in Percent Predicted Forced Vital Capacity (FVC) (Cohort 1: 200 mg QD, EOT): −2.5 (10.3) percent predicted FVC | Change From Baseline in Percent Predicted Forced Vital Capacity (FVC) (Cohort 2: 200 mg BID, Cycle 3, Day 1): −2.4 (6.0) percent predicted FVC | Change From Baseline in Percent Predicted Forced Vital Capacity (FVC) (Cohort 2: 200 mg BID, Cycle 5, Day 1): −4.3 (5.2) percent predicted FVC | Change From Baseline in Percent Predicted Forced Vital Capacity (FVC) (Cohort 2: 200 mg BID, Cycle 7, Day 1): −1.3 (6.4) percent predicted FVC | Change From Baseline in Percent Predicted Forced Vital Capacity (FVC) (Cohort 2: 200 mg BID, Cycle 8, Day 1): 2.0 (—) percent predicted FVC | Change From Baseline in Percent Predicted Forced Vital Capacity (FVC) (Cohort 2: 200 mg BID, Cycle 9, Day 1): −2.9 (5.5) percent predicted FVC | Change From Baseline in Percent Predicted Forced Vital Capacity (FVC) (Cohort 2: 200 mg BID, Cycle 10, Day 1): −5.0 (8.5) percent predicted FVC | Change From Baseline in Percent Predicted Forced Vital Capacity (FVC) (Cohort 2: 200 mg BID, Cycle 11, Day 1): −2.7 (5.6) percent predicted FVC | Change From Baseline in Percent Predicted Forced Vital Capacity (FVC) (Cohort 2: 200 mg BID, Cycle 12, Day 1): 1.0 (—) percent predicted FVC
